# Measurements published in patent US7601716B2, “Pyridopyrazines and derivatives thereof as ALK and c-Met inhibitors” (Cephalon, Inc., priority 2006, dated 2009).
# Target: baculovirus-expressed ALK (Homo sapiens, UniProt Q9UM73)
# Assay: ALK Kinase Assay (ELISA/TRF, PLC-γ substrate); further: 1 µM ATP (Km level)
# Type: biochemical
# Conditions: read-out: ALK Kinase Inhibition (IC50)
# Procedure: Example compounds were tested for their ability to inhibit the kinase activity of baculovirus-expressed ALK using a modification of the ELISA protocol reported for trkA in Angeles, T. S. et al., Anal. Biochem. 1996, 236, 49-55, which is incorporated herein by reference in its entirety. Phosphorylation of the substrate, phospholipase C-gamma (PLC-γ) generated as a fusion protein with glutathione S-transferase (GST) as reported in Rotin, D. et al., EMBO J. 1992, 11, 559-567, which is incorporated herein by reference in its entirety, was detected with a europium-labeled anti-phosphotyrosine antibody and measured by time-resolved fluorescence (TRF). Briefly, each 96-well plate was coated with 100 μL/well of 10 μg/mL substrate (phospholipase C-γ) in Tris-buffered saline (TBS). […] The reaction was initiated by adding enzyme (30 ng/ml ALK) and was allowed to proceed at 37° C. for 15 minutes. Detection of the phosphorylated product was performed by adding 100 μl/well of Eu-N1 labeled PT66 antibody (Perkin Elmer # AD0041). Incubation at 37° C. then proceeded for one (1) hour, followed by addition of 100 μL enhancement solution (Wallac #1244-105). The plate was gently agitated and after thirty minutes, the fluorescence of the resulting solution was measured using the EnVision 2100 (or 2102) multilabel plate reader (Perkin Elmer).
# Data analysis was performed using ActivityBase (IDBS, Guilford, UK). IC50 values were calculated by plotting percent inhibition versus log10 of the concentration of compound and fitting to the nonlinear regression sigmoidal dose-response (variable slope) equation in XLFit (IDBS, Guilford, UK).
# Chain of baculovirus-expressed ALK (Q9UM73 19-1620): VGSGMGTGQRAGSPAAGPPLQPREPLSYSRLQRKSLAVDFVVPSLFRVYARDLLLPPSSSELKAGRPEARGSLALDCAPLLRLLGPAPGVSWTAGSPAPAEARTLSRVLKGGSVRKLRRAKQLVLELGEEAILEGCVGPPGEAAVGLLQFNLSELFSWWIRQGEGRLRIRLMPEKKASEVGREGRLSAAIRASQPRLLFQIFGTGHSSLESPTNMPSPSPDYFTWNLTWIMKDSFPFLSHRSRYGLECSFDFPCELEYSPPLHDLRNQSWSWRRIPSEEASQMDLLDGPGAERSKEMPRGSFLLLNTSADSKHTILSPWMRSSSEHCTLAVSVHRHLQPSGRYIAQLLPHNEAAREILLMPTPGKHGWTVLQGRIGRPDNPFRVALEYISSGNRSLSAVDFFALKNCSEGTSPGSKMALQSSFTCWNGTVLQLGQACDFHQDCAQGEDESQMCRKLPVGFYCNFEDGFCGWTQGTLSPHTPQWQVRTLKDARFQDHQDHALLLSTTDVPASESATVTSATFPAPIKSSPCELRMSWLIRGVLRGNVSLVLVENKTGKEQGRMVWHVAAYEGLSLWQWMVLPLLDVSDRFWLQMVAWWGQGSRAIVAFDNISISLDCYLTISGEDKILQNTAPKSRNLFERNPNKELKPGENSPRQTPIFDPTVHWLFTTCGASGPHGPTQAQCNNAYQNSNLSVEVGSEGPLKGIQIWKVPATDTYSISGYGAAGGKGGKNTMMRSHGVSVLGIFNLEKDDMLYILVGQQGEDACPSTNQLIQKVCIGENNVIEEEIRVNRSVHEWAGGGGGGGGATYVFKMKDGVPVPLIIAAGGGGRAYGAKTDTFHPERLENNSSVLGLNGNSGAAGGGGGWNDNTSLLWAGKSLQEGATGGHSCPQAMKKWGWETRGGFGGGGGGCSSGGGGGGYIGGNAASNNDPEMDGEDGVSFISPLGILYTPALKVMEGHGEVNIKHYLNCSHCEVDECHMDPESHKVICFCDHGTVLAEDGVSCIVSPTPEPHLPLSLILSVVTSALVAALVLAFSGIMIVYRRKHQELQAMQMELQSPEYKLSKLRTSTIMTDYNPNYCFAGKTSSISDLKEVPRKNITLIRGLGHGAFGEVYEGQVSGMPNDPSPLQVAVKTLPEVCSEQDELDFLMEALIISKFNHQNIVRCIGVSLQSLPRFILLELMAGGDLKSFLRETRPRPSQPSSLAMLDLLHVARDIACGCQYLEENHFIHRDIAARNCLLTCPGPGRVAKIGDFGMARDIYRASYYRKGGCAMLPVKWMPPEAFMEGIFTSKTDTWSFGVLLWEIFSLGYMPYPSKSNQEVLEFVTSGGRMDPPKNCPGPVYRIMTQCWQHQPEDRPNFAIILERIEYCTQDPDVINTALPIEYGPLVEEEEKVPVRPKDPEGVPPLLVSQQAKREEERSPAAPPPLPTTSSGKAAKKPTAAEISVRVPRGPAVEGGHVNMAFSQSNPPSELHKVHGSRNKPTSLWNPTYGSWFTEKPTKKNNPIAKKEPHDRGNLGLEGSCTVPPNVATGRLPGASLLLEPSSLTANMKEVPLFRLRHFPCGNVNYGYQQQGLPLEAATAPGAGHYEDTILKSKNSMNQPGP
row,SMILES,IC50 [nM]
1,"O=C(c1cccc(-c2cnc3c(c2)N(Cc2cc(Cl)ccc2C(F)(F)F)CCN3)c1)N1CCN(c2ccccc2)CC1 [Example 306, (3-{1-[5-Chloro-2-(trifluoromethyl)benzyl]-1,2,3,4-tetrahydropyrido[2,3-b]pyrazin-7-yl}phenyl)-(4-phenylpiperazin-1-yl)methanone]",100 to 1000
2,"O=C(c1cccc(-c2cnc3c(c2)N(Cc2cc(Cl)ccc2C(F)(F)F)CCN3)c1)N1CCN(c2ncccn2)CC1 [Example 307, (3-{1-[5-Chloro-2-(trifluoromethyl)benzyl]-1,2,3,4-tetrahydropyrido[2,3-b]pyrazin-7-yl}phenyl)-(4-pyrimidin-2-ylpiperazin-1-yl)methanone]",100 to 1000
3,"O=C(c1cccc(-c2cnc3c(c2)N(Cc2cc(Cl)ccc2C(F)(F)F)CCN3)c1)N1CCN(c2ccc(Cl)cc2)CC1 [Example 308, [4-(4-Chlorophenyl)-piperazin-1-yl]-(3-{1-[5-Chloro-2-(trifluoromethyl)benzyl]-1,2,3,4-tetrahydropyrido[2,3-b]pyrazin-7-yl}phenyl)methanone]",100 to 1000
4,"O=C(c1cccc(-c2cnc3c(c2)N(Cc2cc(Cl)ccc2C(F)(F)F)CCN3)c1)N1CCC(O)(c2ccc(Cl)cc2)CC1 [Example 309, [4-(4-Chlorophenyl)-4-hydroxypiperidin-1-yl]-(3-{1-[5-Chloro-2-(trifluoromethyl)benzyl]-1,2,3,4-tetrahydropyrido[2,3-b]pyrazin-7-yl}phenyl)methanone]",100 to 1000
5,"O=C(c1cccc(-c2cnc3c(c2)N(Cc2cc(Cl)ccc2C(F)(F)F)CCN3)c1)N1CCC(n2c(=O)[nH]c3ccccc32)CC1 [Example 310, 1-[1-(3-{1-[5-Chloro-2-(trifluoromethyl)benzyl]-1,2,3,4-tetrahydropyrido[2,3-b]pyrazin-7-yl}benzoyl)piperidin-4-yl]-1,3-dihydrobenzoimidazol-2-one]",100 to 1000
6,"COc1ccccc1N1CCN(C(=O)c2cccc(-c3cnc4c(c3)N(Cc3cc(Cl)ccc3C(F)(F)F)CCN4)c2)CC1 [Example 311, (3-{1-[5-Chloro-2-(trifluoromethyl)benzyl]-1,2,3,4-tetrahydropyrido[2,3-b]pyrazin-7-yl}phenyl)-[4-(2-methoxyphenyl)piperazin-1-yl]methanone]",100 to 1000
7,"O=C(c1cccc(-c2cnc3c(c2)N(Cc2cc(Cl)ccc2C(F)(F)F)CCN3)c1)N1CCN(c2cccc(C(F)(F)F)c2)CC1 [Example 312, (3-{1-[5-Chloro-2-(trifluoromethyl)benzyl]-1,2,3,4-tetrahydropyrido[2,3-b]pyrazin-7-yl}phenyl)-{4-[3-(trifluoromethyl)phenyl]piperazin-1-yl}methanone]",100 to 1000
8,"O=C(c1cccc(-c2cnc3c(c2)N(Cc2cc(Cl)ccc2C(F)(F)F)CCN3)c1)N1CCC(c2ccccc2)CC1 [Example 313, (3-{1-[5-Chloro-2-(trifluoromethyl)benzyl]-1,2,3,4-tetrahydropyrido[2,3-b]pyrazin-7-yl}phenyl)-(4-phenylpiperidin-1-yl)methanone]",100 to 1000
9,"O=C(c1cccc(-c2cnc3c(c2)N(Cc2cc(Cl)ccc2C(F)(F)F)CCN3)c1)N1CCC(c2c[nH]c3ccccc23)CC1 [Example 314, (3-{1-[5-Chloro-2-(trifluoromethyl)benzyl]-1,2,3,4-tetrahydropyrido[2,3-b]pyrazin-7-yl}phenyl)-[4-(1H-indol-3-yl)piperidin-1-yl]methanone]",100 to 1000
10,"O=C(c1cccc(-c2cnc3c(c2)N(Cc2cc(Cl)ccc2C(F)(F)F)CCN3)c1)N1CCN(C(c2ccccc2)c2ccccc2)CC1 [Example 315, (4-Benzhydrylpiperazin-1-yl)-(3-{1-[5-Chloro-2-(trifluoromethyl)benzyl]-1,2,3,4-tetrahydropyrido[2,3-b]pyrazin-7-yl}phenyl)methanone]",1000 to 10000
11,"O=C(c1cccc(-c2cnc3c(c2)N(Cc2cc(Cl)ccc2C(F)(F)F)CCN3)c1)N1CCC(Cc2ccccc2)CC1 [Example 316, (4-Benzylpiperidin-1-yl)-(3-{1-[5-Chloro-2-(trifluoromethyl)benzyl]-1,2,3,4-tetrahydropyrido[2,3-b]pyrazin-7-yl}phenyl)methanone]",100 to 1000
12,"O=C(c1cccc(-c2cnc3c(c2)N(Cc2cc(Cl)ccc2C(F)(F)F)CCN3)c1)N1CCN(c2ccc(Cl)c(Cl)c2)CC1 [Example 317, (3-{1-[5-Chloro-2-(trifluoromethyl)benzyl]-1,2,3,4-tetrahydropyrido[2,3-b]pyrazin-7-yl}phenyl)-[4-(3,4-dichlorophenyl)piperazin-1-yl]methanone]",100 to 1000
13,"O=C(c1cccc(-c2cnc3c(c2)N(Cc2cc(Cl)ccc2C(F)(F)F)CCN3)c1)N1CCC2(CC1)C(=O)NCN2c1ccccc1 [Example 318, 8-(3-{1-[5-Chloro-2-(trifluoromethyl)benzyl]-1,2,3,4-tetrahydropyrido[2,3-b]pyrazin-7-yl}benzoyl)-1-phenyl-1,3,8-triaza-spiro[4.5]decan-4-one]",100 to 1000
14,"O=C(c1cccc(-c2cnc3c(c2)N(Cc2cc(Cl)ccc2C(F)(F)F)CCN3)c1)N1CCN(c2ccccc2C(F)(F)F)CC1 [Example 319, (3-{1-[5-Chloro-2-(trifluoromethyl)benzyl]-1,2,3,4-tetrahydropyrido[2,3-b]pyrazin-7-yl}phenyl)-{4-[2-(trifluoromethyl)phenyl]piperazin-1-yl}methanone]",100 to 1000
15,"O=C(c1cccc(-c2cnc3c(c2)N(Cc2cc(Cl)ccc2C(F)(F)F)CCN3)c1)N1CCN(c2ncnc3ccsc23)CC1 [Example 320, (3-{1-[5-Chloro-2-(trifluoromethyl)benzyl]-1,2,3,4-tetrahydropyrido[2,3-b]pyrazin-7-yl}phenyl)-(4-thieno[3,2-d]pyrimidin-4-ylpiperazin-1-yl)methanone]",100 to 1000
16,"O=C(c1cccc(-c2cnc3c(c2)N(Cc2cc(Cl)ccc2C(F)(F)F)CCN3)c1)N1CCN(Cc2ccc(Cl)cc2)CC1 [Example 321, [4-(4-Chlorobenzyl)piperazin-1-yl]-(3-{1-[5-Chloro-2-(trifluoromethyl)benzyl]-1,2,3,4-tetrahydropyrido[2,3-b]pyrazin-7-yl}phenyl)methanone]",100 to 1000
17,"COc1ccc(CN2CCN(C(=O)c3cccc(-c4cnc5c(c4)N(Cc4cc(Cl)ccc4C(F)(F)F)CCN5)c3)CC2)cc1 [Example 322, (3-{1-[5-Chloro-2-(trifluoromethyl)benzyl]-1,2,3,4-tetrahydropyrido[2,3-b]pyrazin-7-yl}phenyl)-[4-(4-methoxybenzyl)piperazin-1-yl]methanone]",100 to 1000
18,"O=C(c1ccccc1)N1CCN(C(=O)c2cccc(-c3cnc4c(c3)N(Cc3cc(Cl)ccc3C(F)(F)F)CCN4)c2)CC1 [Example 323, (4-Benzoylpiperazin-1-yl)-(3-{1-[5-Chloro-2-(trifluoromethyl)benzyl]-1,2,3,4-tetrahydropyrido[2,3-b]pyrazin-7-yl}phenyl)methanone]",100 to 1000
19,"O=C(c1cccc(-c2cnc3c(c2)N(Cc2cc(Cl)ccc2C(F)(F)F)CCN3)c1)N1CCN(c2nccc3occc23)CC1 [Example 324, (3-{1-[5-Chloro-2-(trifluoromethyl)benzyl]-1,2,3,4-tetrahydropyrido[2,3-b]pyrazin-7-yl}phenyl)-(4-furo[3,2-c]pyridin-4-ylpiperazin-1-yl)methanone]",100 to 1000
